Measurements: ChEMBL document CHEMBL4014278, “Discovery of uracil-bearing DAPYs derivatives as novel HIV-1 NNRTIs via crystallographic overlay-based molecular hybridization” (Eur J Med Chem, 2017)
Values after ≈ are worked out from the molar mass of the structure shown.

Columns and labels:
[1] = test system: Human immunodeficiency virus 1; assay: Antiviral activity against HIV1 NL4-3; format: functional; conditions: Human immunodeficiency virus 1, NL4-3
[2] = test system: Human immunodeficiency virus 2; assay: Antiviral activity against HIV-2 ROD infected in human MT4 cells assessed as protection against virus-induced cytopathic effect measured at 5 days post infection by MTT assay; format: functional, cell-based; conditions: Human immunodeficiency virus 2, ISOLATE ROD, MT4, 120 h
[3] = test system: Human immunodeficiency virus 1; assay: Antiviral activity against HIV1 RES056 harboring K103N/Y181C double mutant infected in human MT4 cells assessed as protection against virus-induced cytopathic effect measured at 5 days post infection by MTT assay; format: functional, cell-based; conditions: Human immunodeficiency virus 1, RES056, MT4, 120 h
[4] = Selectivity index, ratio of CC50 for human MT4 cells to EC50 for wild-type HIV1 3B infected in human MT4 cells; format: toxicity, cell-based; conditions: read-out: Ratio CC50/EC50
[5] = Cytotoxicity against human MT4 cells after 5 days by MTT assay; format: cell-based
[6] = test system: Human immunodeficiency virus 1; assay: Antiviral activity against wild-type HIV1 3B infected in human MT4 cells assessed as protection against virus-induced cytopathic effect measured at 5 days post infection by MTT assay; format: functional, cell-based; conditions: Human immunodeficiency virus 1, 3B, MT4, 120 h
[7] = Solubility of the compound in phosphate buffer at pH 2 after 2 hrs by UV-HPLC method; format: physicochemical
[8] = Solubility of the compound in phosphate buffer at pH 7.4 after 2 hrs by UV-HPLC method; format: physicochemical
[9] = n-Octanol/water partition coefficient, log P of the compound after 2 hrs by HPLC method; format: physicochemical

| Structure (SMILES) | EC50 [1] [nM] | EC50 [2] [µM] | EC50 [3] [µM] | selectivity ratio [4] | CC50 at 120 h [5] [µM] | EC50 [6] [nM] | solubility at 2 h [7] [µg/mL] | solubility at 2 h [8] [µg/mL] | logP at 2 h [9] |
| --- | --- | --- | --- | --- | --- | --- | --- | --- | --- |
| Cc1cc(C#N)cc(C)c1Oc1nc(Nc2ccc(C#N)cc2)nc2[nH]ccc12 | 0.53 |  |  |  |  |  |  |  |  |
| Cc1cc(C)c(Oc2cc(Cl)nc(NCCn3ccc(=O)[nH]c3=O)n2)c(C)c1 |  | > 44.1 | > 44.1 | 85 | 44.1 | 520 |  |  |  |
| Cc1cc(C)c(Nc2nc(NCCn3ccc(=O)[nH]c3=O)ncc2[N+](=O)[O-])c(C)c1 |  | > 3.33 | > 3.33 | ≥ 40 | ≥ 3.33 | 83 |  |  |  |
| Cc1cc(C)cc(Oc2cc(NCCn3ccc(=O)[nH]c3=O)nc(Cl)n2)c1 |  | > 99.5 |  | < 1 | 99.5 | > 99500 |  |  |  |
| Cc1cc(C)c(Oc2ccnc(NCCn3ccc(=O)[nH]c3=O)n2)c(C)c1 |  | > 272 | > 272 | 515 | 272 | 530 |  |  |  |
| Cc1cc(C#N)cc(C)c1Oc1ccnc(NCCn2ccc(=O)[nH]c2=O)n1 |  | > 35.8 | > 35.8 | 5 | 35.8 | 6660 | > 100 | 62.9 (≈ 166 µM) | -0.11 |
| Cc1cc(/C=C/C#N)cc(C)c1Oc1cc(Cl)nc(NCCn2ccc(=O)[nH]c2=O)n1 |  | > 285 | > 285 | > 2270 | > 285 | 120 |  |  |  |
| Cc1cc(C#N)cc(C)c1Oc1cc(Cl)nc(NCCn2ccc(=O)[nH]c2=O)n1 |  | > 20.6 | > 20.6 | 3 | 20.6 | 7730 |  |  |  |
| Cc1cc(C)c(Oc2cc(N)nc(NCCn3ccc(=O)[nH]c3=O)n2)c(C)c1 |  | > 119 | > 119 | 44 | 119 | 2700 |  |  |  |
| Cc1cc(C)c(Oc2cc(NCCn3ccc(=O)[nH]c3=O)nc(Cl)n2)c(C)c1 |  | > 76.4 |  | ≤ 2 | 76.4 | > 42300 |  |  |  |
| Cc1cc(C#N)cc(C)c1Oc1nc(NCCn2ccc(=O)[nH]c2=O)ncc1Cl |  | > 11.7 | > 11.7 | ≥ 255 | > 11.7 | 46 |  |  |  |
| Cc1cc(C#N)cc(C)c1Oc1nc(NCCn2ccc(=O)[nH]c2=O)nc(N)c1Br |  | > 265 | > 265 | > 7680 | > 265 | 34 |  |  |  |
| Cc1cc(C)cc(Oc2cc(N)nc(NCCn3ccc(=O)[nH]c3=O)n2)c1 |  | > 127 |  | < 1 | 127 | > 45800 |  |  |  |
| Cc1cc(C)cc(Oc2cc(Cl)nc(NCCn3ccc(=O)[nH]c3=O)n2)c1 |  | > 56.5 |  | > 1 | > 56.5 | > 56500 |  |  |  |
| Cc1cc(C)c(Nc2nc(NCCn3ccc(=O)[nH]c3=O)ncc2N)c(C)c1 |  | > 299 | > 299 | > 20 | > 199 | 14900 |  |  |  |
